According to ChEMBL document CHEMBL3091456, “Chemical Probe Identification Platform for Orphan GPCRs Using Focused Compound Screening: GPR39 as a Case Example” (ACS Med Chem Lett, 2013):
Activity calls are given as the source filed them. The calls are words filed in the database; no cut-off is given here.

Key:
[1] = biological target: T1, G-protein coupled receptor 39 (Homo sapiens, UniProt O43194); experiment: Agonist activity at recombinant human GPR39 expressed in CHO-K1 cells assessed as increase of Zn2+-induced cAMP production preincubated for 30 mins measured after 60 mins; format: functional, cell-based
T1 sequence (O43194 whole entry): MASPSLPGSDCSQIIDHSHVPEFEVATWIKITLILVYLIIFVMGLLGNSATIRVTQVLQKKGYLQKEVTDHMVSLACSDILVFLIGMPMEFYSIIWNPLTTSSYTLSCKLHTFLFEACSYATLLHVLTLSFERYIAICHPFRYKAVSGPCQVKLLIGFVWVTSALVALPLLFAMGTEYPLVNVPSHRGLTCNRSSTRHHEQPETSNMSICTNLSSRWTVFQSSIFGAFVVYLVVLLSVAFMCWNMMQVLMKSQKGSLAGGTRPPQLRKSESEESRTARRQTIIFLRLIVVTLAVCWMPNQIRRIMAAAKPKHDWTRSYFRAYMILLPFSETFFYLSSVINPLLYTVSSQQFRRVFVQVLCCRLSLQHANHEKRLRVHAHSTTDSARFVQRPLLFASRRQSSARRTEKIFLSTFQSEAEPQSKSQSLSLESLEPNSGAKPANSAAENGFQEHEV

[2] = biological target: T1, G-protein coupled receptor 39; experiment: Agonist activity at recombinant human GPR39 expressed in CHO-K1 cells assessed as increase of Zn2+-induced intracellular Ca+2 mobilization after 1 hr by Fluo-4 No staining-based FLIPR assay; format: cell-based
[3] = Apparent permeability of the compound; format: physicochemical; details: not told
[4] = biological target: T2, G-protein coupled receptor 39 (Homo sapiens) (UniProt O43194); experiment: Agonist activity at recombinant human GPR39 expressed in CHO-K1 cells assessed as increase of Zn2+-induced cAMP production preincubated for 30 mins measured after 60 mins relative to Zn+2; format: functional, cell-based
T2 sequence (whole entry): T1 sequence (O43194 whole entry)

[5] = biological target: T3, Protein Gpr39 (Rattus norvegicus) (UniProt A6QR73); experiment: Agonist activity at GPR39 in rat INS-1 cells assessed as effect on glucose-stimulated insulin secretion; format: cell-based; details: INS1
T3 sequence (whole entry): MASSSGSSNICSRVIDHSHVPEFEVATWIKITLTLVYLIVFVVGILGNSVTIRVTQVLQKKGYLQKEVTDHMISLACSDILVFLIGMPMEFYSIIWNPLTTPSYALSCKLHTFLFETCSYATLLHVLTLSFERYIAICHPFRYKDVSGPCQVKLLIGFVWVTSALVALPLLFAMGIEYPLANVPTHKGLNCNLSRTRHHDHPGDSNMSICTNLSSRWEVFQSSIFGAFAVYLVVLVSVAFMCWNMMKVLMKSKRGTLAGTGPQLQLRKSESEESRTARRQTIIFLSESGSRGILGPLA

[6] = biological target: T2, G-protein coupled receptor 39 (Homo sapiens); experiment: Agonist activity at GPR39 in human HT-29 cells assessed as intracellular Ca2+ mobilization after 72 hrs by FLIPR assay in presence of siRNA; format: functional, cell-based
[7] = biological target: T2, G-protein coupled receptor 39 (Homo sapiens); experiment: Agonist activity at recombinant human GPR39 expressed in CHO-K1 cells assessed as increase of Zn2+-induced intracellular Ca+2 mobilization after 1 hr by Fluo-4 No staining-based FLIPR assay relative to Zn+2; format: cell-based
[8] = biological target: T2, G-protein coupled receptor 39 (Homo sapiens); experiment: Agonist activity at GPR39 in human HT-29 cells assessed as cAMP accumulation; format: functional, cell-based
[9] = biological target: T1, G-protein coupled receptor 39; experiment: Agonist activity at GPR39 in human HT-29 cells assessed as increase in intracellular Ca2+ mobilization after 72 hrs by FLIPR assay; format: functional, cell-based
[10] = biological target: T2, G-protein coupled receptor 39 (Homo sapiens); experiment: Agonist activity at GPR39 in human islets assessed as 11.2 mM glucose-stimulated insulin secretion up to 10 uM after 1 hr
[11] = biological target: cGMP-inhibited 3',5'-cyclic phosphodiesterase 3A (Homo sapiens, UniProt Q14432); experiment: Inhibition of PDE3a (unknown origin)
cGMP-inhibited 3',5'-cyclic phosphodiesterase 3A, sequence (Q14432 whole entry): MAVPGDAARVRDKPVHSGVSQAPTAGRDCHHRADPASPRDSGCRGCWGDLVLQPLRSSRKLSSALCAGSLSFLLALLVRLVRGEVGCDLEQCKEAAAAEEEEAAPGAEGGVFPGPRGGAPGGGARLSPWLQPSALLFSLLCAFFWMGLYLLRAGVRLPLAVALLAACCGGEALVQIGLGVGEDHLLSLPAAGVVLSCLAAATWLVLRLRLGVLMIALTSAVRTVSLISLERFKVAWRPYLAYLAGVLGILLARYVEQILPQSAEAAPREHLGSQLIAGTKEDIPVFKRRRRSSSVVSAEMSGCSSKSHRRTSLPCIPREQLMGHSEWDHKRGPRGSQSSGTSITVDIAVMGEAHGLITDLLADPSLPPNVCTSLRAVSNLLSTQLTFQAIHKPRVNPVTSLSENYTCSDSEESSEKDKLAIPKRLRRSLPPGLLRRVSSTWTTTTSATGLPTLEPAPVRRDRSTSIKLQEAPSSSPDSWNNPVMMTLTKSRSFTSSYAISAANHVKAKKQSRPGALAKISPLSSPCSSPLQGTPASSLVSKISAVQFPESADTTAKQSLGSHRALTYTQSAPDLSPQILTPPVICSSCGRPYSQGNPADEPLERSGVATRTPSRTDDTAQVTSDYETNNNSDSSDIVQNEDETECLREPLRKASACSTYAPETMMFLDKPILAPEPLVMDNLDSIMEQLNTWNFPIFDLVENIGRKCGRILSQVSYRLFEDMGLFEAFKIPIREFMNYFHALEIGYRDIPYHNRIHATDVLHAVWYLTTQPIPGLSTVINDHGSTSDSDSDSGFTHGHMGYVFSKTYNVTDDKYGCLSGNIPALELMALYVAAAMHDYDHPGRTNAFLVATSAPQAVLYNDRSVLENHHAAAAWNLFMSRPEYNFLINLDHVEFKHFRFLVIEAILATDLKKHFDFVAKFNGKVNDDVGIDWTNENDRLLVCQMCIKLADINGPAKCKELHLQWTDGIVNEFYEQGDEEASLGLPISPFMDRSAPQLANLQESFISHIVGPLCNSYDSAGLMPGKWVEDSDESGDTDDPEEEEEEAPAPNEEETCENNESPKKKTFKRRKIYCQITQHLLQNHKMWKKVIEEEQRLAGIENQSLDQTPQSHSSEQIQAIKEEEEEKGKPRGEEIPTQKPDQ

[12] = biological target: T2, G-protein coupled receptor 39 (Homo sapiens); experiment: Agonist activity at GPR39 in human islets assessed as 2.8 mM glucose-stimulated insulin secretion up to 10 uM after 0.75 hrs
[13] = Apparent permeability across MDCK cells; format: ADME, cell-based, Canis lupus familiaris; details: dog
[14] = biological target: cGMP-inhibited 3',5'-cyclic phosphodiesterase 3B (Homo sapiens, UniProt Q13370); experiment: Inhibition of PDE3B (unknown origin)
cGMP-inhibited 3',5'-cyclic phosphodiesterase 3B, sequence (Q13370 whole entry): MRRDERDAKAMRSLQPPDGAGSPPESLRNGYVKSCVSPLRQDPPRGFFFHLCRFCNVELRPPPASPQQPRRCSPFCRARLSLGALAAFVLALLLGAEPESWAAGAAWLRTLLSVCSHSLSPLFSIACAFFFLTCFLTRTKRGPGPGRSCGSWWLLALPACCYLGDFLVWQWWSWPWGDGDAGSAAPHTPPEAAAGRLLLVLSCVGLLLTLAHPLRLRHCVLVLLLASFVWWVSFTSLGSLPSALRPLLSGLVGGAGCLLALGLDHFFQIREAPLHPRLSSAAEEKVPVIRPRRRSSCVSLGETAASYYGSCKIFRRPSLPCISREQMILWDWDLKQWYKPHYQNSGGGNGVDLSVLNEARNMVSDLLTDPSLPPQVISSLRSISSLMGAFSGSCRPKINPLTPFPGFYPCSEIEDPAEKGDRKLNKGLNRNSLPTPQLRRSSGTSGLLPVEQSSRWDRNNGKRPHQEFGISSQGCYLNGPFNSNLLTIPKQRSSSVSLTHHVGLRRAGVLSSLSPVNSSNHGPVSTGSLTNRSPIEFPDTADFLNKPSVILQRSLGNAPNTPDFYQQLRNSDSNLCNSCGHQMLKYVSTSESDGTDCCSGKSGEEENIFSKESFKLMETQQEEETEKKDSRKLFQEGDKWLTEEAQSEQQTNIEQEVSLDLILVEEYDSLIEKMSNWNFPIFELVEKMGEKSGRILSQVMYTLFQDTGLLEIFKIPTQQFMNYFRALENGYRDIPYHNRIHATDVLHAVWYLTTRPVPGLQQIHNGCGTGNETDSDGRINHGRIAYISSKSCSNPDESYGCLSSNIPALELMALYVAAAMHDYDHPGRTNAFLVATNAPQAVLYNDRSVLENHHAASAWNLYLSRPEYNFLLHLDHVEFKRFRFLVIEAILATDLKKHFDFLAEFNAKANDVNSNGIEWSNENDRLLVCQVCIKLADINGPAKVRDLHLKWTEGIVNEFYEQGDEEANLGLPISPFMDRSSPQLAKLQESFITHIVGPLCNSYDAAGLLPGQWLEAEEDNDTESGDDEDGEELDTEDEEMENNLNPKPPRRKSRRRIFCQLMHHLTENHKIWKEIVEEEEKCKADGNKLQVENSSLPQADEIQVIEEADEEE

[15] = biological target: T2, G-protein coupled receptor 39 (Homo sapiens); experiment: Agonist activity at GPR39 in human HT-29 cells assessed as intracellular Ca2+ mobilization up to 30 uM after 72 hrs by FLIPR assay; format: functional, cell-based
[16] = biological target: T2, G-protein coupled receptor 39 (Homo sapiens); experiment: Agonist activity at GPR39 in human HT-29 cells assessed as cAMP accumulation up to 30 uM; format: functional, cell-based

**Q.** Which results are given for `CCc1ncc(CN2C[C@@H](C(=O)NCc3ccccc3Cl)[C@H](c3cccnc3)C2)[nH]1`?
**A.** EC50 [1]: 840 nM; EC50 [2]: 190 nM; Papp [3]: 0.8 ×10⁻⁶ cm/s

**Q.** What does the source list for `N#Cc1ccc(N2CCN(Cc3cn4cc(Cl)ccc4n3)CC2)nc1`?
**A.** Efficacy [4]: 100%; Activity [5]: inactive; Activity [6]: inactive; EC50 [1]: 12000 nM; Efficacy [7]: 76%; Activity [8]: inactive; EC50 [9]: 900 nM; Activity [10]: inactive; IC50 [11]: 15000 nM; Activity [12]: inactive; Papp [13]: 7.6 ×10⁻⁶ cm/s; IC50 [14]: 24000 nM; EC50 [2]: 56 nM

**Q.** What does the source list for `CCc1nc(CN2C[C@@H](C(=O)NCc3ccccc3Cl)[C@H](c3cccnc3)C2)c[nH]1`?
**A.** Efficacy [4]: 99%; Activity [15]: inactive; Efficacy [7]: 74%; Activity [16]: inactive

**Q.** Which Efficacy [4] does the source give for `COc1cccc([C@@H]2CCN(CCc3ccccc3)C[C@H]2C(=O)NCCc2ccccn2)c1` (racemic) here?
**A.** Its Efficacy is 107%.

**Q.** What about the EC50 [1] of the same compound?
**A.** Its EC50 is 4500 nM.

**Q.** What about the Efficacy [7] of the same compound?
**A.** The Efficacy was 82%.

**Q.** What about the EC50 [2] of the same compound?
**A.** The EC50 was 3100 nM.

**Q.** What about the Papp [3] of the same compound?
**A.** The Papp was 3.1 ×10⁻⁶ cm/s.

**Q.** Which results are given for `CCc1ncc(CN2C[C@H](C(=O)NCc3ccccc3Cl)[C@@H](c3cccnc3)C2)[nH]1`?
**A.** EC50 [1]: 310 nM; EC50 [2]: 320 nM; Papp [3]: 1.2 ×10⁻⁶ cm/s

**Q.** For `CCc1nc(CN2C[C@H](C(=O)NCc3ccccc3Cl)[C@@H](c3cccnc3)C2)c[nH]1`, which Efficacy [4] is on record?
**A.** The Efficacy was 107%.

**Q.** What about the Activity [15] of the same compound?
**A.** Its Activity is “inactive”.

**Q.** And the Efficacy [7]?
**A.** The Efficacy was 66%.

**Q.** What about the Activity [16] of the same compound?
**A.** The Activity was “inactive”.
